Test results from patent EP4635500A1, “THERAPEUTIC AGENT FOR BACTERIAL INFECTION” (Sumitomo Pharma Co., Ltd., priority 2022, dated 2024).
Converted amounts (≈) assume the structure as drawn. Where two headings read alike, the source gives them in different places.

Tested on: Enterobacterales
Test: MIC, broth microdilution, CDC/FDA Antibiotic Resistance Isolate Bank (Example 7, Tables 8, 11, 12)
Type: cell-based

CN(C)c1cc(NC(=O)CNC(C)(C)C)c(O)c2c1C[C@H]1C[C@H]3[C@H](N(C)C)C(=O)C(C(N)=O)=C(O)[C@@]3(O)C(=O)C1=C2O [Tigecyeline]
MIC (Klebsiella pneumoniae, KUB No. 5576, AR Bank # 79): 0.5 µg/mL (≈ 0.854 µM) | MIC (Klebsiella pneumoniae, KUB No. 5577, AR Bank # 80): 0.25 µg/mL (≈ 0.427 µM) | MIC (Klebsiella pneumoniae, KUB No. 5584, AR Bank # 87): 2 µg/mL (≈ 3.41 µM) | MIC (Klebsiella pneumoniae, KUB No. 5594, AR Bank # 97): 1 µg/mL (≈ 1.71 µM) | MIC (Klebsiella pneumoniae, KUB No. 5595, AR Bank # 98): 0.5 µg/mL (≈ 0.854 µM) | MIC (Klebsiella pneumoniae, KUB No. 5603, AR Bank # 106): 2 µg/mL (≈ 3.41 µM) | MIC (Klebsiella pneumoniae, KUB No. 5604, AR Bank # 107): 0.25 µg/mL (≈ 0.427 µM) | MIC (Klebsiella pneumoniae, KUB No. 5606, AR Bank # 109): 1 µg/mL (≈ 1.71 µM) | MIC (Klebsiella pneumoniae, KUB No. 5609, AR Bank # 112): 0.5 µg/mL (≈ 0.854 µM) | MIC (Klebsiella pneumoniae, KUB No. 5610, AR Bank # 113): 0.5 µg/mL (≈ 0.854 µM) | MIC (Klebsiella pneumoniae, KUB No. 5612, AR Bank # 115): 2 µg/mL (≈ 3.41 µM) | MIC (Klebsiella pneumoniae, KUB No. 5614, AR Bank # 117): 0.5 µg/mL (≈ 0.854 µM) | MIC (Klebsiella pneumoniae, KUB No. 5617, AR Bank # 120): 0.5 µg/mL (≈ 0.854 µM) | MIC (Klebsiella pneumoniae, KUB No. 5622, AR Bank # 125): 1 µg/mL (≈ 1.71 µM) | MIC (Klebsiella pneumoniae, KUB No. 5623, AR Bank # 126): 0.5 µg/mL (≈ 0.854 µM) | MIC (Klebsiella pneumoniae, KUB No. 5626, AR Bank # 129): 1 µg/mL (≈ 1.71 µM) | MIC (Klebsiella pneumoniae, KUB No. 5632, AR Bank # 135): 1 µg/mL (≈ 1.71 µM) | MIC (Klebsiella pneumoniae, KUB No. 5635, AR Bank # 138): 2 µg/mL (≈ 3.41 µM) | MIC (Klebsiella pneumoniae, KUB No. 5636, AR Bank # 139): 0.5 µg/mL (≈ 0.854 µM) | MIC (Klebsiella pneumoniae, KUB No. 5637, AR Bank # 140): 1 µg/mL (≈ 1.71 µM) | MIC (Klebsiella pneumoniae, KUB No. 5638, AR Bank # 141): 1 µg/mL (≈ 1.71 µM) | MIC (Klebsiella pneumoniae, KUB No. 5639, AR Bank # 142): 1 µg/mL (≈ 1.71 µM) | MIC (Klebsiella pneumoniae, KUB No. 5640, AR Bank # 143): 2 µg/mL (≈ 3.41 µM) | MIC (Klebsiella pneumoniae, KUB No. 5642, AR Bank # 145): 0.5 µg/mL (≈ 0.854 µM) | MIC (Klebsiella pneumoniae, KUB No. 5643, AR Bank # 146): 1 µg/mL (≈ 1.71 µM) | MIC (Klebsiella pneumoniae, KUB No. 5645, AR Bank # 148): 1 µg/mL (≈ 1.71 µM) | MIC (Klebsiella pneumoniae, KUB No. 5649, AR Bank # 152): 2 µg/mL (≈ 3.41 µM) | MIC (Klebsiella pneumoniae, KUB No. 5650, AR Bank # 153): 1 µg/mL (≈ 1.71 µM) | MIC (Klebsiella pneumoniae, KUB No. 5655, AR Bank # 158): 1 µg/mL (≈ 1.71 µM) | MIC (Klebsiella pneumoniae, KUB No. 5657, AR Bank # 160): 0.5 µg/mL (≈ 0.854 µM) | MIC (Klebsiella pneumoniae, Klebsiella pneumoniae KUB No. 5784, AR Bank #438): 1 µg/mL (≈ 1.71 µM) | MIC (Klebsiella pneumoniae, Klebsiella pneumoniae KUB No. 5797, AR Bank #453): 1 µg/mL (≈ 1.71 µM) | MIC (Klebsiella pneumoniae, Klebsiella pneumoniae KUB No. 5809, AR Bank #504): 1 µg/mL (≈ 1.71 µM) | MIC (Klebsiella pneumoniae, Klebsiella pneumoniae KUB No. 5810, AR Bank #505): 0.5 µg/mL (≈ 0.854 µM) | MIC (Klebsiella pneumoniae, Klebsiella pneumoniae KUB No. 5811, AR Bank #506): 2 µg/mL (≈ 3.41 µM) | MIC (Klebsiella pneumoniae, Klebsiella pneumoniae KUB No. 5812, AR Bank #507): 2 µg/mL (≈ 3.41 µM) | MIC (Klebsiella pneumoniae, Klebsiella pneumoniae KUB No. 5827, AR Bank #522): 1 µg/mL (≈ 1.71 µM) | MIC (Klebsiella pneumoniae, Klebsiella pneumoniae KUB No. 5828, AR Bank #523): 1 µg/mL (≈ 1.71 µM) | MIC (Klebsiella pneumoniae, Klebsiella pneumoniae KUB No. 5829, AR Bank #524): 1 µg/mL (≈ 1.71 µM) | MIC (Klebsiella pneumoniae, Klebsiella pneumoniae KUB No. 5830, AR Bank #525): 1 µg/mL (≈ 1.71 µM) | MIC (Kluyvera ascorbata, KUB No. 5641, AR Bank # 144, read-out: MIC): 2 µg/mL (≈ 3.41 µM) | MIC (Morganella morganii, KUB No. 5554, AR Bank# 57): 0.5 µg/mL (≈ 0.854 µM) | MIC (Morganella morganii, KUB No. 5630, AR Bank # 133, read-out: MIC): 4 µg/mL (≈ 6.83 µM) | MIC (Proteus mirabilis, KUB No. 5556, AR Bank# 59): 1 µg/mL (≈ 1.71 µM) | MIC (Proteus mirabilis, KUB No. 5652, AR Bank # 155): 2 µg/mL (≈ 3.41 µM) | MIC (Proteus mirabilis, KUB No. 5653, AR Bank # 156): 1 µg/mL (≈ 1.71 µM) | MIC (Proteus mirabilis, KUB No. 5656, AR Bank # 159): 2 µg/mL (≈ 3.41 µM) | MIC (Providencia rettgeri, KUB No. 5579, AR Bank # 82): 2 µg/mL (≈ 3.41 µM) | MIC (Raoultella ornithinolvtica, KUB No. 5631, AR Bank # 134, read-out: MIC): 0.25 µg/mL (≈ 0.427 µM) | MIC (Salmonella enterica, Salmonella Senftenberg, KUB No. 5624, AR Bank # 127, read-out: MIC): 0.5 µg/mL (≈ 0.854 µM) | MIC (Serratia marcescens, KUB No. 5588, AR Bank # 91): 0.5 µg/mL (≈ 0.854 µM) | MIC (Serratia marcescens, KUB No. 5596, AR Bank # 99): 1 µg/mL (≈ 1.71 µM) | MIC (Serratia marcescens, KUB No. 5618, AR Bank # 121): 1 µg/mL (≈ 1.71 µM) | MIC (Serratia marcescens, KUB No. 5619, AR Bank # 122): 1 µg/mL (≈ 1.71 µM) | MIC (Serratia marcescens, KUB No. 5620, AR Bank # 123): 1 µg/mL (≈ 1.71 µM) | MIC (Serratia marcescens, KUB No. 5621, AR Bank # 124): 1 µg/mL (≈ 1.71 µM) | MIC (Serratia marcescens, KUB No. 5627, AR Bank # 130): 1 µg/mL (≈ 1.71 µM) | MIC (Serratia marcescens, KUB No. 5628, AR Bank # 131): 1 µg/mL (≈ 1.71 µM) | MIC (Serratia marcescens, Serratia marcescens KUB No. 5825, AR Bank #520): 1 µg/mL (≈ 1.71 µM) | MIC (Serratia marcescens, Serratia marcescens KUB No. 5826, AR Bank #521): 2 µg/mL (≈ 3.41 µM)
